Test results published in PubChem BioAssay AID1259407 (Chemical Carcinogenesis Research Information System (CCRIS), 2018).
The source made the active and inactive calls. The rule behind the calls is not given here.

Tested on: CCRIS mutagenicity, Ames/micronucleus/aberration tests
Test: CCRIS mutagenicity studies
[1] = Test System: AMES SALMONELLA TYPHIMURIUM, Strain/Indicator: TA98, Metabolic Activation: NONE, Method: PREINCUBATION
[2] = Test System: AMES SALMONELLA TYPHIMURIUM, Strain/Indicator: TA98, Metabolic Activation: NONE, Method: STANDARD PLATE
[3] = Test System: AMES SALMONELLA TYPHIMURIUM, Strain/Indicator: TA98, Metabolic Activation: RAT, LIVER, S-9, AROCLOR 1254, Method: PREINCUBATION
[4] = Test System: AMES SALMONELLA TYPHIMURIUM, Strain/Indicator: TA100, Metabolic Activation: NONE, Method: PREINCUBATION
[5] = Test System: AMES SALMONELLA TYPHIMURIUM, Strain/Indicator: TA100, Metabolic Activation: NONE, Method: STANDARD PLATE
[6] = Test System: AMES SALMONELLA TYPHIMURIUM, Strain/Indicator: TA100, Metabolic Activation: RAT, LIVER, S-9, AROCLOR 1254, Method: PREINCUBATION
[7] = Test System: AMES SALMONELLA TYPHIMURIUM, Strain/Indicator: TA102, Metabolic Activation: NONE, Method: STANDARD PLATE

CCCCC1C(=O)N(c2ccccc2)N(c2ccccc2)C1=O
mutagenic call (End Point: IN VITRO CHROMOSOMAL ABERRATIONS, Test System: CHINESE HAMSTER OVARY CELLS, Metabolic Activation: NONE): inactive; negative | mutagenic call (End Point: IN VITRO CHROMOSOMAL ABERRATIONS, Test System: CHINESE HAMSTER OVARY CELLS, Metabolic Activation: RAT, LIVER, S-9, AROCLOR 1254): active; positive | mutagenic call (Test System: AMES SALMONELLA TYPHIMURIUM, Strain/Indicator: TA97A, Metabolic Activation: NONE, Method: STANDARD PLATE): inactive; negative | mutagenic call (Test System: AMES SALMONELLA TYPHIMURIUM, Strain/Indicator: TA97A, Metabolic Activation: RAT LIVER S-9, PHENOBARBITAL, Method: STANDARD PLATE): inactive; negative | mutagenic call (Test System: AMES SALMONELLA TYPHIMURIUM, Strain/Indicator: TA98, Metabolic Activation: HAMSTER, LIVER, S-9, AROCLOR 1254, Method: PREINCUBATION): inactive; negative | mutagenic call [1]: inactive; negative | mutagenic call [2]: inactive; negative | mutagenic call (Test System: AMES SALMONELLA TYPHIMURIUM, Strain/Indicator: TA98, Metabolic Activation: RAT LIVER S-9, PHENOBARBITAL, Method: STANDARD PLATE): inactive; negative | mutagenic call [3]: inactive; negative | mutagenic call (Test System: AMES SALMONELLA TYPHIMURIUM, Strain/Indicator: TA100, Metabolic Activation: HAMSTER, LIVER, S-9, AROCLOR 1254, Method: PREINCUBATION): inactive; negative | mutagenic call [4]: inactive; negative | mutagenic call [5]: inactive; negative | mutagenic call (Test System: AMES SALMONELLA TYPHIMURIUM, Strain/Indicator: TA100, Metabolic Activation: RAT LIVER S-9 PHENOBARBITAL, Method: STANDARD PLATE): inactive; negative | mutagenic call [6]: inactive; negative | mutagenic call [7]: inactive; negative | mutagenic call (Test System: AMES SALMONELLA TYPHIMURIUM, Strain/Indicator: TA102, Metabolic Activation: RAT LIVER S-9, PHENOBARBITAL, Method: STANDARD PLATE): inactive; negative | mutagenic call (Test System: AMES SALMONELLA TYPHIMURIUM, Strain/Indicator: TA1535, Metabolic Activation: HAMSTER, LIVER, S-9, AROCLOR 1254, Method: PREINCUBATION): inactive; negative | mutagenic call (Test System: AMES SALMONELLA TYPHIMURIUM, Strain/Indicator: TA1535, Metabolic Activation: NONE, Method: PREINCUBATION): inactive; negative | mutagenic call (Test System: AMES SALMONELLA TYPHIMURIUM, Strain/Indicator: TA1535, Metabolic Activation: RAT, LIVER, S-9, AROCLOR 1254, Method: PREINCUBATION): inactive; negative | mutagenic call (Test System: AMES SALMONELLA TYPHIMURIUM, Strain/Indicator: TA1537, Metabolic Activation: HAMSTER, LIVER, S-9, AROCLOR 1254, Method: PREINCUBATION): inactive; negative | mutagenic call (Test System: AMES SALMONELLA TYPHIMURIUM, Strain/Indicator: TA1537, Metabolic Activation: NONE, Method: PREINCUBATION): inactive; negative | mutagenic call (Test System: AMES SALMONELLA TYPHIMURIUM, Strain/Indicator: TA1537, Metabolic Activation: RAT, LIVER, S-9, AROCLOR 1254, Method: PREINCUBATION): inactive; negative | mutagenic call (Test System: MOUSE LYMPHOMA, Strain/Indicator: L5178Y (TK+/TK-), Metabolic Activation: NONE, Method: SUSPENSION/PLATE): active; positive | mutagenic call (Test System: MOUSE LYMPHOMA, Strain/Indicator: L5178Y (TK+/TK-), Metabolic Activation: RAT, LIVER, S-9, AROCLOR 1254, Method: SUSPENSION/PLATE): active; positive

CCc1cccc2cccnc12
mutagenic call (Test System: AMES SALMONELLA TYPHIMURIUM, Strain/Indicator: TA100, Metabolic Activation: S-9, Method: PREINCUBATION): active; positive

Cc1ccsc1
mutagenic call [1]: inactive; negative | mutagenic call [3]: inactive; negative | mutagenic call [4]: inactive; negative | mutagenic call [6]: inactive; negative | mutagenic call (Test System: AMES SALMONELLA TYPHIMURIUM, Strain/Indicator: TA102, Metabolic Activation: NONE, Method: PREINCUBATION): inactive; negative | mutagenic call (Test System: AMES SALMONELLA TYPHIMURIUM, Strain/Indicator: TA102, Metabolic Activation: RAT, LIVER, S-9, AROCLOR 1254, Method: PREINCUBATION): inactive; negative

CCCCCCC(O)CCCCCCCCCCC(=O)O (stereo unspecified)
mutagenic call (Test System: AMES SALMONELLA TYPHIMURIUM, Strain/Indicator: TA97, Metabolic Activation: NONE, Method: STANDARD PLATE): inactive; negative | mutagenic call (Test System: AMES SALMONELLA TYPHIMURIUM, Strain/Indicator: TA97, Metabolic Activation: S-9, Method: STANDARD PLATE): inactive; negative | mutagenic call [2]: inactive; negative | mutagenic call [5]: inactive; negative | mutagenic call (Test System: AMES SALMONELLA TYPHIMURIUM, Strain/Indicator: TA100, Metabolic Activation: S-9, Method: STANDARD PLATE): inactive; negative | mutagenic call [7]: inactive; negative | mutagenic call (Test System: AMES SALMONELLA TYPHIMURIUM, Strain/Indicator: TA102, Metabolic Activation: S-9, Method: STANDARD PLATE): inactive; negative | mutagenic call (Test System: E.COLI, Strain/Indicator: WP2 (PKM101), Metabolic Activation: NONE, Method: STANDARD PLATE): inactive; negative | mutagenic call (Test System: E.COLI, Strain/Indicator: WP2 (PKM101), Metabolic Activation: S-9, Method: STANDARD PLATE): inactive; negative

CC(C)CCC[C@@H](C)[C@H]1CC[C@H]2[C@@H]3CC=C4C[C@@H](O)CC[C@]4(C)[C@H]3CC[C@]12C
mutagenic call (Test System: CHINESE HAMSTER V-79, Strain/Indicator: V-79/OUABAIN, Metabolic Activation: NONE): inactive; negative
